Assay results from patent US5288723A, “A composition and a method of using veratridine and epinephrine as a local anesthetic” (priority 1991, dated 1994).
Entries after “also recorded” stand apart in the source; their conditions may differ. Read-outs that look alike come from different tables or passages of the source.

How the values were obtained:
[1] = aqueous slat solutions; limited to approximately; cited from earlier work
[2] = test system: angiotensin II receptors; details: reported by Ball et al.; cited from earlier work
[3] = test system: C-fibers of rabbit vagus nerve; experiment: Extracellular recording of compound action potentials (APc), desheathed vagus nerve, C-fibers; design: species or system New Zealand white rabbit; details: for inhibition at 0.5 µM: 1 h, mean ± SEM; for inhibition at 0.5 µM / activity at 0.5 µM: 0.5 μM VTD; for activity at 0.5 µM: read-out: Amplitude of single APc elevation relative to amplitude at beginning of VTD exposure
Experimental: Adult male New Zealand white rabbits (3±0.5 kg) were pretreated intramuscularly with a mixture of ketamine (200 mg), xylazine (20 mg) and atropine (0.4 mg) for sedation. Ten minutes after this treatment, the animals were anesthetized with diethyl ether. After cessation of respiration, a longitudinal skin incision was made, and the cervical portion of both vagus nerves was dissected. The vagus nerves were temporarily stored at room temperature (22° C.) in a beaker containing modified HEPES Liley (HL) solution stirred constantly by aeration with a mixture of 95% oxygen and 5% carbon dioxide.
The modified HL solution used for bathing the nerve and subsequent drug perfusion consisted of (in mM): NaCl, 118.0; KCl, 5.0; CaCl2 2H2 0, 2.0; MgCl2 6H2 0, 1.0; α-D(+)-glucose, 11.0; NaHC03, 25.0; and N-2-hydroxy-ethylpiperazine-N-2-ethanesulfonic acid (HEPES) buffer, 5.0 mM. The pH was adjusted to 7.4±0.05 by addition of 1 N NaOH. The perfusion solution was bubbled with a gas mixture of 95% oxygen and 5% carbon dioxide at a vigorous rate just before flowing onto the nerve. The pH was stabilized by the HEPES buffer and maintained at 7.4.
VTD free base (no. V-5754, lot 58F-7828, Sigma, St. Louis, Mo.) was stored in a desiccator below 0° C. and was used to prepare a 2 mM stock solution in dimethyl sulfoxide [DMSO], Fisher Scientific, lot 861316), which also was stored at below 0° C. VTD, a steroidal alkaloid (FIG. 2A) that is produced by certain lilies, has a solubility limited to approximately 10^-3 M in aqueous slat solutions [Kupchan and By, "The Veratrum Group," in Alkaloids, Vol. 10, Manske, R.H.F. (ed.), New York, Academic Press (1968), pp. 193-285]. The stock VTD solution was diluted to final concentrations of 0.2-10 μM by the addition of HL. The maximum equivalent content of DMSO is 0.5%, and in three control experiments we detected no change in electrophysiologic behavior with 1% DMSO.
(§1) The nerves were cleaned and desheathed by microdissection before mounting in an airtight chamber (FIG. 2B) [Gissen et al., Anesthesiology 53:467-474 (1980)]. Petroleum jelly (White Petrolatum, Denison Laboratories) seals separated a central, 11-mm length of the nerve from the lateral pools, used for stimulating and recording with electrodes made of platinum wire. The central section of the chamber (volume 0.25 ml) was perfused with HL solution at 0.5 ml.min.^-1. The lateral pools containing the moistened ends of the nerves adsorbed to the electrodes were filled with paraffin oil. The APc s were propagated over 21 mm, from the stimulating to the recording electrodes, with the proximal recording electrodc located 4.5 mm from the edge of the central, drug exposure chamber. Thus, measured APc s were conducted in nerve exposed to drug for half of the conduction pathway, and had been conducting through drug-free medium over a distance containing at least two or three nodes of Ranvier (in the fastest-conducting fibers), before reaching the recording electrodes.
(§2) The signal from the nerve was amplified 50 times (model AK 475 operational amplifier, Metametrics, Carlisle, Mass.) and passed to the oscilloscope preamplifiers (model 5A 22N, Tektronix). The preparation was not considered acceptable unless the APc signals from the nerve exceeded 1.5 mV for A-fibers, 0.5 mV for B-fibers, and 0.3 mV for C-fibers.
(§3) Each nerve was exposed to only one VTD concentration, and each concentration was tested in four or five separate nerves, except in tie sheathed nerves, for which only two nerves were used. The temperature was 20°-22° C.
The standard protocol used for testing the action of VTD was to record the APc elevations in control HL solution for 30-60 min. before adding VTD; for 60-75 min. during VTD application; and for 60-75 min. after replacement with VTD-free HL. […]

[4] = test system: rat sciatic nerve; experiment: Sensory block of rat sciatic nerve in vivo (nocifensive withdrawal reflex to pinch of the foot pad); design: species or system Male Sprague-Dawley rats; details: for fraction block, SENSORY / duration, SENSORY / onset, SENSORY: 0.1 ml; for duration, SENSORY / onset, SENSORY: mean ± SEM
Experimental: (§4) Male Sprague-Dawley rats (200-250 g) were divided into 4 groups of 10 each. 0.1 ml of VTD alone at 0.2, 0.5 or 0.7 mM or vehicle (saline) was injected at the depression between the femoral head and the hip. The same animals were injected with VTD with epinephrine (EPI, 1:200,000) one week later, using the previously uninjected leg. Motor and sensory functions were rated by the respective monitoring of toe curling and/or foot dragging, and by testing the nocifensive withdrawal reflex to pinch of the foot pad of the injected hindlimb. Saline alone affected neither function.

[5] = Toxic signs (salivation) in rats after sciatic nerve injection; assay type: in vivo, Male Sprague-Dawley rats; details: for fraction salivating: 0.1 ml
Experimental: as §4

[6] = test system: vagus nerve with intact sheath (C-fibers); experiment: Extracellular recordings from sheathed nerves; design: species or system rabbit
Experimental: as §1, §2, §3
We tested the ability of VTD to penetrate the tissues ensheathing the vagus nerve. Nerves with intact sheaths were arranged in the same extracellular recording chamber as had been used for the desheathed nerve studies just described. Because of the electrical isolating qualities of the sheath, stimulus requirements are greater and the recorded APC s are smaller, but have the same latency from stimulation as in the desheathed nerves. […] However, the onset of the effect was much slower and the VTD dose requirement much higher: 2 μM VTD took approximately 30 min. to affect the C-fibers detectably, and 10 μM took approximately 15 min. This is expected in a lipophilic base for which more than 90%, on average, of the drug molecules are ionized [Kupchan and By, "The Veratrum Group," in Alkaloids, Vol. 10, Manske, R.H.F. (ed.), New York, Academic Press (1968), pp. 193-285].

COc1ccc(C(=O)OC2CCC3(C)C4CCC5C6(O)CC(O)C7(O)C(CN8CC(C)CCC8C7(C)O)C6(O)CC53OC24O)cc1OC (centres unmarked) [VTD, veratridine]
Solubility [1]: approximately 10^-3 M | Inhibition of angiotensin II receptors [2]: selective inhibitor of angiotensin II receptors | Use-dependent reduction of APc by VTD, C-fibers ([3]; 0-2.0 μM (FIG. 7C), at relatively low frequencies): diminished most; also recorded: greatest for the C-fiber component | Use-dependent inhibition and slowing of C-fiber APc ([3]; 2 μM VTD, 5 Hz, second through tenth APc, 15-20 min. exposure): slowed conduction and reduced amplitude | Single-stimulus APc after VTD compared with no-VTD controls ([3]; C-fibers, 0.5 μM, 60 min. in VTD, P<0.005): significant enhancement | Longer latency of the second wave vs the first wave ([3]; C-fibers, 2 μM VTD, 5 Hz (FIG. 6B)): about 20% | Reversal of use-dependent depression by washing ([3]; C-fibers, VTD-free HL wash): partial reversal | Recovery time of APc after stimulation ceased ([3]; C-fibers, sometimes as long as, depending on VTD concentration): 1 to 2 min | inhibition at 0.5 µM ([3]; Oryctolagus cuniculus, C-fibers, 10 Hz, after 60 min. in VTD, P < 0.001 vs control, read-out: Percent inhibition of the tenth APc in a train compared to the first, VTD): 54.6 ± 3.8% | inhibition at 0.5 µM ([3]; Oryctolagus cuniculus, C-fibers, 10 Hz, after 60 min. wash, read-out: Percent inhibition of the tenth APc in a train compared to the first, HL (Wash)): 34.6 ± 3.8% | activity at 0.5 µM ([3]; Oryctolagus cuniculus, C-fibers, during VTD exposure): 111 ± 5% | activity at 0.5 µM ([3]; Oryctolagus cuniculus, C-fibers, wash period): 133 ± 15% | inhibition at 0.2 µM ([3]; Oryctolagus cuniculus, 0.2 μM VTD, 10 Hz, after about 1 h of wash-out, read-out: C-fiber use-dependent inhibition after VTD wash-out): 22% | Frequency of sensory block (summary) ([4]; VTD alone, vs motor block): less frequently | fraction block, SENSORY ([4]; [VTD] 0.2 mM): 1/10 | duration, SENSORY ([4]; [VTD] 0.2 mM): 51 min | onset, SENSORY ([4]; [VTD] 0.2 mM): 13 min | fraction block, SENSORY ([4]; [VTD] 0.5 mM): 2/10 | duration, SENSORY ([4]; [VTD] 0.5 mM): 224 ± 44 min | onset, SENSORY ([4]; [VTD] 0.5 mM): 3 ± 1 min | fraction block, SENSORY ([4]; [VTD] 0.7 mM): 4/10 | duration, SENSORY ([4]; [VTD] 0.7 mM): 115 ± 1 min | onset, SENSORY ([4]; [VTD] 0.7 mM): 10 ± 2 min | Block of nocifensive reflexes compared with bupivacaine and lidocaine ([4]; rat sciatic nerve): blocked less predictably | Toxic signs, including profuse salivation ([5]; 0.5 and 0.7 mM VTD alone): 14/20 | fraction salivating ([5]; [VTD] 0.2 mM): 0/10 | fraction salivating ([5]; [VTD] 0.5 mM): 4/10 | fraction salivating ([5]; [VTD] 0.7 mM): 10/10 | Time to affect the C-fibers detectably, sheathed nerve ([6]; 2 μM VTD): approximately 30 min. | Time to affect the C-fibers detectably, sheathed nerve ([6]; 10 μM VTD): approximately 15 min. | Use-dependent reduction as % of that achieved at steady state on a desheathed nerve by 0.2 μm VTD ([6]; 10 Hz, 60-min. exposure to 10 μm VTD): approximately 30% | C-fiber elevation / APc inhibition in sheathed nerves ([6]; intact sheath): inhibited selectively; also recorded: progressively inhibited in a use-dependent fashion | Reduction of rate of penetration into the nerve by the sheath ([6]; sheathed vs desheathed nerve): at least 50 fold | Rate of VTD action with intact nerve sheath ([6]; vs desheathed nerves): far less than in desheathed nerves | Duration of steady-state effect in drug-free solution ([6]; wash-out period after 75 min. exposure, both nerves tested, up to): up to 3 h
